Structures can show the parent of a compound that is named as a salt. Where two headings read alike, the source gives them in different places. *1 amine or outer side, *2 acyl side, *3 side chain or, on linkers, in order; H or OH if unused. Where a SMILES comes first, the peptide text is derived from it. Bridges are numbered along the chain shown (N, C = ends). Roman numbers before positions name the chains, in order. [ ]: non-standard residue; d: D form. Actinocin(9to1) = Cc1c2oc3c(C)ccc(C(=O)[*:1])c3nc-2c(C(=O)[*:2])c(N)c1=O; NMeV = CN[C@H](C(=O)O)C(C)C; Sar = CNCC(=O)O
Columns and labels:
[1] = target: T1, SARS-CoV-2 PLpro (nsp3 1564–1878) (Severe acute respiratory syndrome coronavirus 2, UniProt P0DTD1); test: biochemical; design: FRET-quenched peptide (Pro3) cleavage by PLpro, 10 min pre-incubation, slope over 20 min, normalised to no-compound control; details: read-out: % of control remaining
[2] = target: T1, SARS-CoV-2 PLpro (nsp3 1564–1878); test: biochemical; design: FRET-quenched peptide (Pro3) cleavage by PLpro, 10 min pre-incubation, slope over 20 min, normalised to no-compound control; details: read-out: % of control remaining; remark: listed apart in the source

Compound: CC(=O)Nc1nnc(S(N)(=O)=O)s1 [Acetazolamide]
- remaining activity at 1.25 µM ([1]; Well no.=163, low concentration screen): 101%
- remaining activity at 3.75 µM ([2]; Well no.=163, high concentration screen): 103%

Compound: CC(=O)c1ccc(S(=O)(=O)NC(=O)NC2CCCCC2)cc1 [Acetohexamide]
- remaining activity at 1.25 µM ([1]; Well no.=18, low concentration screen): 93.4%
- remaining activity at 3.75 µM ([2]; Well no.=18, high concentration screen): 98.9%

Compound: CC(=O)OC(C)C[N+](C)(C)C (stereo not drawn) [Acetyl-beta-methylcholine chloride]
- remaining activity at 1.25 µM ([1]; Well no.=107, low concentration screen): 98.7%
- remaining activity at 3.75 µM ([2]; Well no.=107, high concentration screen): 98.4%

Compound: CC(=O)N[C@@H](CSC/C=C(\C)CC/C=C(\C)CCC=C(C)C)C(=O)O [Acetyl-farnesyl-cysteine]
- remaining activity at 1.25 µM ([1]; Well no.=4342, low concentration screen): 102%
- remaining activity at 3.75 µM ([2]; Well no.=4342, high concentration screen): 102%

Compound: CC(=O)OCC[N+](C)(C)C [Acetylcholine]
- remaining activity at 1.25 µM ([1]; Well no.=1550, low concentration screen): 96.7%
- remaining activity at 3.75 µM ([2]; Well no.=1550, high concentration screen): 98.7%

Compound: CC(=O)N[C@@H](CS)C(=O)O [Acetylcysteine]
- remaining activity at 1.25 µM ([1]; Well no.=6161, low concentration screen): 102%
- remaining activity at 1.25 µM ([1]; Well no.=8266, low concentration screen): 99.9%
- remaining activity at 3.75 µM ([2]; Well no.=6161, high concentration screen): 103%
- remaining activity at 3.75 µM ([2]; Well no.=8266, high concentration screen): 101%

Compound: CC(=O)Oc1ccccc1C(=O)O [Acetylsalicylic acid]
- remaining activity at 1.25 µM ([1]; Well no.=161, low concentration screen): 101%
- remaining activity at 1.25 µM ([1]; Well no.=2067, low concentration screen): 102%
- remaining activity at 3.75 µM ([2]; Well no.=161, high concentration screen): 97.3%
- remaining activity at 3.75 µM ([2]; Well no.=2067, high concentration screen): 103%

Compound: CC(=O)SCC[N+](C)(C)C [Acetylthiocholine chloride]
- remaining activity at 1.25 µM ([1]; Well no.=257, low concentration screen): 97.5%
- remaining activity at 3.75 µM ([2]; Well no.=257, high concentration screen): 99.3%

Compound: Cc1cnc(C(=O)O)c[n+]1[O-] [Acipimox]
- remaining activity at 1.25 µM ([1]; Well no.=2069, low concentration screen): 102%
- remaining activity at 3.75 µM ([2]; Well no.=2069, high concentration screen): 104%

Compound: COc1cc(C)c(/C=C/C(C)=C/C=C/C(C)=C/C(=O)O)c(C)c1C [Acitretin]
- remaining activity at 1.25 µM ([1]; Well no.=1817, low concentration screen): 96.4%
- remaining activity at 3.75 µM ([2]; Well no.=1817, high concentration screen): 96.3%

Compound: N[C@H](C(=O)O)[C@@H]1CC(Cl)=NO1 [Acivicin]
- remaining activity at 1.25 µM ([1]; Well no.=3483, low concentration screen): 96.9%
- remaining activity at 3.75 µM ([2]; Well no.=3483, high concentration screen): 97.4%

Compound: CC[C@@]1(O)C[C@H](O[C@H]2C[C@H](N(C)C)[C@H](O[C@H]3C[C@H](O)[C@H](O[C@H]4CCC(=O)[C@H](C)O4)[C@H](C)O3)[C@H](C)O2)c2c(cc3c(c2O)C(=O)c2c(O)cccc2C3=O)[C@H]1C(=O)OC [Aclarubicin]
- remaining activity at 1.25 µM ([1]; Well no.=1573, low concentration screen): 101%
- remaining activity at 3.75 µM ([2]; Well no.=1573, high concentration screen): 96.4%

Compound: O=C(O[C@H]1C[N+]2(CCCOc3ccccc3)CCC1CC2)C(O)(c1cccs1)c1cccs1 [Aclidinium (Bromide)]
- remaining activity at 1.25 µM ([1]; Well no.=7336, low concentration screen): 98%
- remaining activity at 3.75 µM ([2]; Well no.=7336, high concentration screen): 101%

Compound: O=C(O[C@H]1C[N+]2(CCCOc3ccccc3)CCC1CC2)C(O)(c1cccs1)c1cccs1 [Aclidinium Bromide]
- remaining activity at 1.25 µM ([1]; Well no.=5358, low concentration screen): 100%
- remaining activity at 3.75 µM ([2]; Well no.=5358, high concentration screen): 97.4%

Compound: CCN1C[C@]2(COC)[C@H](O)C[C@H](OC)[C@@]34[C@@H]5C[C@@]6(O)[C@H](OC(=O)c7ccccc7)[C@@H]5[C@@](OC(C)=O)([C@@H]([C@H](OC)[C@H]23)[C@@H]14)[C@@H](O)[C@@H]6OC [Aconitine]
- remaining activity at 1.25 µM [1]: 96%
- remaining activity at 3.75 µM [2]: 98.5%

Compound: CC(=O)Nc1ccc(CC(=O)O)cc1 [Actarit]
- remaining activity at 1.25 µM ([1]; Well no.=1907, low concentration screen): 96.1%
- remaining activity at 3.75 µM ([2]; Well no.=1907, high concentration screen): 95.2%

Compound: Cc1c2oc3c(C)ccc(C(=O)N[C@@H]4C(=O)N[C@H](C(C)C)C(=O)N5CCC[C@H]5C(=O)N(C)CC(=O)N(C)[C@@H](C(C)C)C(=O)O[C@@H]4C)c3nc-2c(C(=O)N[C@@H]2C(=O)N[C@H](C(C)C)C(=O)N3CCC[C@H]3C(=O)N(C)CC(=O)N(C)[C@@H](C(C)C)C(=O)O[C@@H]2C)c(N)c1=O [Actinomycin D] (I: T[dV]P[Sar][NMeV] / II: T[dV]P[Sar][NMeV]; ester I:1-I:C, II:1-II:C; linker I:N-II:N via Actinocin(9to1))
- remaining activity at 1.25 µM ([1]; Well no.=3075, low concentration screen): 103%
- remaining activity at 3.75 µM ([2]; Well no.=3075, high concentration screen): 103%

Compound: CCCCC[C@H](CC(=O)NO)C(=O)N[C@H](C(=O)N1CCC[C@H]1CO)C(C)C [Actinonin]
- remaining activity at 1.25 µM ([1]; Well no.=21, low concentration screen): 97.8%
- remaining activity at 3.75 µM ([2]; Well no.=21, high concentration screen): 97.8%

Compound: Nc1nc2c(ncn2COCCO)c(=O)[nH]1 [Acycloguanosine]
- remaining activity at 1.25 µM ([1]; Well no.=2073, low concentration screen): 103%
- remaining activity at 3.75 µM ([2]; Well no.=2073, high concentration screen): 106%

Compound: Nc1nc2c(ncn2COCCO)c(=O)[nH]1 [Acyclovir]
- remaining activity at 1.25 µM ([1]; Well no.=159, low concentration screen): 104%
- remaining activity at 1.25 µM ([1]; Well no.=8000, low concentration screen): 92.6%
- remaining activity at 3.75 µM ([2]; Well no.=159, high concentration screen): 103%
- remaining activity at 3.75 µM ([2]; Well no.=8000, high concentration screen): 89.5%

Compound: COc1ccc(-c2ccc3cc(C(=O)O)ccc3c2)cc1[C@]12C[C@H]3C[C@H](C[C@H](C3)C1)C2 [Adapalene]
- remaining activity at 1.25 µM ([1]; Well no.=1939, low concentration screen): 99.2%
- remaining activity at 3.75 µM ([2]; Well no.=1939, high concentration screen): 103%

Compound: O=C(OC12CC3CC(CC(C3)C1)C2)c1ccc(NCc2cc(O)ccc2O)cc1 [Adaphostin]
- remaining activity at 1.25 µM ([1]; Well no.=5772, low concentration screen): 105%
- remaining activity at 3.75 µM ([2]; Well no.=5772, high concentration screen): 109%

Compound: O=C(O)/C=C/c1ccc(-c2ccc(O)c(C34CC5CC(CC(C5)C3)C4)c2)cc1 [Adarotene]
- remaining activity at 1.25 µM ([1]; Well no.=6342, low concentration screen): 101%
- remaining activity at 3.75 µM ([2]; Well no.=6342, high concentration screen): 99%

Compound: Nc1ncnc2nc[nH]c12 [Adenine sulfate]
- remaining activity at 1.25 µM ([1]; Well no.=5006, low concentration screen): 97.9%
- remaining activity at 3.75 µM ([2]; Well no.=5006, high concentration screen): 85.9%

Compound: Nc1[nH]cnc2ncnc1-2 [Adenine]
- remaining activity at 1.25 µM ([1]; Well no.=5004, low concentration screen): 108%
- remaining activity at 1.25 µM ([1]; Well no.=7253, low concentration screen): 101%
- remaining activity at 3.75 µM ([2]; Well no.=5004, high concentration screen): 107%
- remaining activity at 3.75 µM ([2]; Well no.=7253, high concentration screen): 98.1%

Compound: Nc1ncnc2c1ncn2[C@@H]1O[C@H](COP(=O)(O)OP(=O)(O)O)[C@@H](O)[C@H]1O [Adenosine 5'-diphosphate]
- remaining activity at 1.25 µM ([1]; Well no.=7363, low concentration screen): 104%
- remaining activity at 1.25 µM ([1]; Well no.=7868, low concentration screen): 102%
- remaining activity at 3.75 µM ([2]; Well no.=7363, high concentration screen): 105%
- remaining activity at 3.75 µM ([2]; Well no.=7868, high concentration screen): 104%

Compound: Nc1ncnc2c1ncn2[C@@H]1O[C@H](COP(=O)(O)O)[C@@H](O)[C@H]1O [Adenosine 5'-monophosphate monohydrate]
- remaining activity at 1.25 µM ([1]; Well no.=7902, low concentration screen): 96.3%
- remaining activity at 1.25 µM ([1]; Well no.=8121, low concentration screen): 106%
- remaining activity at 3.75 µM ([2]; Well no.=7902, high concentration screen): 101%

Compound: Nc1ncnc2nc(-c3ccc(N4CCOCC4)nc3)cc(-c3cccc(Br)c3)c12 [Adenosine Kinase Inhibitor]
- remaining activity at 1.25 µM ([1]; Well no.=2694, low concentration screen): 102%
- remaining activity at 3.75 µM ([2]; Well no.=2694, high concentration screen): 103%

Compound: Nc1ncnc2c1ncn2[C@@H]1O[C@H](COP(=O)(O)O)[C@@H](O)[C@H]1O [Adenosine monophosphate]
- remaining activity at 1.25 µM ([1]; Well no.=7109, low concentration screen): 103%
- remaining activity at 1.25 µM ([1]; Well no.=7816, low concentration screen): 107%
- remaining activity at 3.75 µM ([2]; Well no.=7109, high concentration screen): 102%
- remaining activity at 3.75 µM ([2]; Well no.=7816, high concentration screen): 104%

Compound: Nc1ncnc2c1ncn2[C@@H]1O[C@H](CO)[C@@H](O)[C@H]1O [Adenosine]
- remaining activity at 1.25 µM ([1]; Well no.=200, low concentration screen): 94%
- remaining activity at 1.25 µM ([1]; Well no.=6301, low concentration screen): 105%
- remaining activity at 1.25 µM ([1]; Well no.=8048, low concentration screen): 87.9%
- remaining activity at 3.75 µM ([2]; Well no.=200, high concentration screen): 95.6%
- remaining activity at 3.75 µM ([2]; Well no.=6301, high concentration screen): 102%
- remaining activity at 3.75 µM ([2]; Well no.=8048, high concentration screen): 88.7%

Source: PMC8286840, “Identifying SARS-CoV-2 antiviral compounds by screening for small molecule inhibitors of Nsp3 papain-like protease” (Biochemical Journal, 2021)
